Assay results as given in patent publication US20230287316A1, “INTER-ORGAN PLATFORM WITH TISSUE-SPECIFIC NICHES FOR A MICROPHYSIOLOGICAL SYSTEM ON A CHIP” (THE TRUSTEES OF COLUMBIA UNIVERSITY IN THE CITY OF NEW YORK, priority 2020, published 2023).

Experiments:
[1] = tested on: tumors from metastatic cells; test: Linsitinib in bioengineered tumors from metastatic OS cells; type: cell-based, human; conditions: 12 µM, for 3 weeks
Protocol: We tested the drug Linsitinib—a potent tyrosine kinase inhibitor targeting the IGF-1 receptor (IGF-1R) —in metastatic and non-metastatic OS models (FIG. 17C). The drug was administered (12 µM, for 3 weeks), as per an ongoing Phase II Eurosarc trial in patients with advanced Ewing sarcoma.

ES cell monolayers = test: Linsitinib dose response in ES cell monolayers (MTT and luminescence viability); type: cell-based, human; conditions: 0-100 µM over 72 hours
Protocol: MTT viability assay was used to determine drug toxicity, with luminescence generated by viable cells measured at the endpoint (10^4 cells per well, mean± s.e.m., n = 3). […] In order to determine cancer cell viability, cells were lysed and treated with luciferin using a Bright-Glo™ assay, with subsequent luminescence measured (10^4 cells per well, mean± s.e.m., n = 3).
(§1) Cell viability was analyzed using a previously established protocol.^59 Cancer cell viability was measured for GFP-Luciferase labelled cancer cells using ONE-Glo luciferase substrate that was prepared according to manufacturer’s protocol (Promega). Samples were collected following 3, 7, and 21 days cycles of linsitinib treatment. Where noted, longitudinal cell viability was also assessed using luminescence, though at the cost of signal strength. Briefly, in vivo grade VivoGlo™ Luciferin (Promega) was made at a 200x stock concentration (30 mg/ml) in water, added to sample culture media at a 1:200 dilution, and scanned using a spectrophotometer (Biotek). Some of the IC50 values were determined using cell viability data generated using an MTT assay (RealTime-Glo™ MT Cell Viability Assay, Promega) that were analyzed according to manufacturer’s protocol.

phosphorylated IGF-1R = target: T1, phosphorylated IGF-1R (Homo sapiens, UniProt P08069); test: Human Phospho-IGF1R ELISA in ES cell monolayers; type: cell-based; conditions: 12 µM for 6 hours, non-metastatic and metastatic ES cell lines
T1 construct: both RD-ES and SK-N-MC monolayers were treated with 12 µM linsitinib for 6 hours, lysed; endogenous in cells; host or cells: RD-ES (ATCC HTB-166) and SK-N-MC (ATCC HTB-10) Ewing sarcoma cell lines
T1 sequence (P08069 31-1367): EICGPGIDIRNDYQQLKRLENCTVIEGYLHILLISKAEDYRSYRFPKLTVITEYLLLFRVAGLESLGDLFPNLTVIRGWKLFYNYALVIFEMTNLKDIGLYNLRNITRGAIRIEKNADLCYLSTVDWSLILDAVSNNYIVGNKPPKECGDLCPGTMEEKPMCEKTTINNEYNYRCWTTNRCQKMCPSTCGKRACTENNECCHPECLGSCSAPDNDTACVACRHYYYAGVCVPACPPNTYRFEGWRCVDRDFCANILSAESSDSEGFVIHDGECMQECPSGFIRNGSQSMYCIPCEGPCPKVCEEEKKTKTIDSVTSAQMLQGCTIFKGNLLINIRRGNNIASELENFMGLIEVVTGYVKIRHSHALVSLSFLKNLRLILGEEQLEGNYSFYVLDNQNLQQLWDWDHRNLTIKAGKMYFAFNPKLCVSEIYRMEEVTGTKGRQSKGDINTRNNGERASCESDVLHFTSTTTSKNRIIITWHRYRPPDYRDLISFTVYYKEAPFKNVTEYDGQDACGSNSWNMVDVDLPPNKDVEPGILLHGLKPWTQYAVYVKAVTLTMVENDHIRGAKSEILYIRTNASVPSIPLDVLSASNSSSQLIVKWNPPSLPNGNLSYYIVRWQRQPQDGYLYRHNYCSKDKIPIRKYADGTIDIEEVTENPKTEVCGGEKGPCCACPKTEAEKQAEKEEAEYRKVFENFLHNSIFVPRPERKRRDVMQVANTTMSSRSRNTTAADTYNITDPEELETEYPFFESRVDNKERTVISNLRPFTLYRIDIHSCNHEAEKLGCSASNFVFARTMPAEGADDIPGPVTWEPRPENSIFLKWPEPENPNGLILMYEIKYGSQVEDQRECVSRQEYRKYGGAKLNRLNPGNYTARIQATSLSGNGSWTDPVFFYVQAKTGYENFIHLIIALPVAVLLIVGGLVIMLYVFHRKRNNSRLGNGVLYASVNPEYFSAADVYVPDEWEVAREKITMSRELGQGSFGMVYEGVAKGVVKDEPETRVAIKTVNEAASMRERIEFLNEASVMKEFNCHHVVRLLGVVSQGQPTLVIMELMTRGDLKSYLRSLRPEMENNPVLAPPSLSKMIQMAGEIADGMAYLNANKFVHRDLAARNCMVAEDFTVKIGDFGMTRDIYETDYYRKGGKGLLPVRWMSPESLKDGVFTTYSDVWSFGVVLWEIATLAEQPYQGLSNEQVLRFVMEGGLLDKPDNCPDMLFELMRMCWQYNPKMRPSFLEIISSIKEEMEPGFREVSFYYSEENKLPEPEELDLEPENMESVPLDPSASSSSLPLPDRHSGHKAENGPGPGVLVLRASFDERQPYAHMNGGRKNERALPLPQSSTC

[2] = tested on: non-metastatic TE-ES (RD-ES) bone tumor; test: Linsitinib on non-metastatic engineered ES bone tumors (TE-ES) cultured in isolation; type: cell-based, human
Excerpt: FIGS. 31A-E show aspects of the evaluation of the dose-dependent effects of doxorubicin and linsitinib on engineered non-metastatic and metastatic ES bone tumors. […] An MTT viability assay was used to determine drug toxicity, with luminescence generated by viable cells measured at the endpoint (10^4 cells per well, mean± s.e.m., n = 3). […] Tumors are outlined by white dashes and validated using corresponding H&E stains of the identical loci. All scale bars: 250 µm.
(§2) FIGS. 32A-D show aspects of responses of human engineered bone ES tumors and cardiac tissues to linsitinib in isolated platform chambers. […] Luminescence as a function of cancer cell number and viability was measured (mean± s.e.m., n = 6 for day 3, and n = 3 for day 7 and 21).
The effects of linsitinib were studied in an experiment performed according to the 3-week treatment cycle used in the clinical trial (3 days of drug administration followed by 4 days without the drug, in 3 cycles), with luminescence signal serving as an indicator of cancer cell viability within the TE-ES.
(§3) Supernatants were collected from each individual sample across the duration of the drug treatments and were analyzed for osteoblast function (OCN, OPN) and for cytotoxicity (LDH) (mean± s.e.m., n = 3).
(§4) Two weeks following the initiation of osteogenic differentiation, aggregates of ES tumor cells were prepared as described previously, using 0.3 × 10^6 cells per aggregate. After 1 week of culture, corresponding to the end of bone tissue culture (3 weeks), the primary ES cell aggregates were placed into the engineered bone constructs (3 aggregates per construct, placed apart of each other). Tumor models were established for two different types of primary ES cells: non-metastatic (RD-ES) and metastatic (SK-N-MC). Tissue engineered RD-ES and SK-N-MC tumors were cultured in the RPMI and EMEM media, respectively, supplemented with 10% FBS and 1% penicillin/streptomycin. Bone constructs cultured without tumor cell aggregates (TE-bone) in RPMI and EMEM media were used as controls.
To assess apoptosis, paraffin embedded tissue sections were first deparaffinized with CitriSolv, rehydrated with graded series of ethanol washes, and then stained with a Click-iT® TUNEL Alexa Fluor® imaging assay (Thermo Fisher Scientific). Following nuclear counterstaining with DAPI (Life Technologies), the TUNEL labelled slides were imaged with an IX81 inverted fluorescent microscope (Olympus) and a Pike F032B camera (ALLIED Vision), using NIS-Elements AR software, and processed using ImageJ (NIH). Four representative images per condition were then analyzed using the previously developed automatic TUNEL cell counter plugin for ImageJ to quantify DAPI^+ cells and TUNEL^+ cells.
as §1, with “(Biotek).” for “(Biotek). Some of the IC50 values were determined using cell viability data generated using an MTT assay (RealTime-Glo™ MT Cell Viability Assay, Promega) that were analyzed according to manufacturer’s protocol.”

[3] = tested on: metastatic TE-ES (SK-N-MC) bone tumor; test: Linsitinib on metastatic engineered ES bone tumors (TE-ES) cultured in isolation; type: cell-based, human; conditions: 12 µM
Protocol: as §2, §3, §4, §1
(§5) Osteocalcin (OCN), osteopontin (OPN), and lactic acid dehydrogenase (LDH) secreted levels were all measured using a similar approach. Supernatants were isolated from controls and drug treated TE-ES and equal amounts were used in each assay according to the manufacturer’s instructions. For OCN a Human Osteocalcin Quantikine^R ELISA (R&D Systems) was used, while for OPN it was a Human Osteopontin Quantikine^R ELISA (R&D Systems). LDH secretion was determined using a Lactate Dehydrogenase Assay Kit (Colorimetric; Abcam).

[4] = tested on: non-metastatic ES bone tumor tissues; test: Linsitinib on non-metastatic ES bone tumor in the integrated platform with microfluidic perfusion; type: cell-based, human; conditions: 12 µM
Protocol: as §1, §5

[5] = cited from earlier work
[6] = 12 µM, 3-week regimen, supernatants
[7] = clinical trials of other types of cancer

C[C@]1(O)C[C@@H](c2nc(-c3ccc4ccc(-c5ccccc5)nc4c3)c3c(N)nccn32)C1 [linsitinib]
tumor viability [1]: no effect
IC50 (MTT viability assay) (ES cell monolayers): two orders of magnitude lower than the effective plasma concentration observed in patients
IC50 (ES cell monolayers; Homo sapiens, GFP-luciferase cells, read-out: IC50 (luminescence as a proxy for cell viability)): ~12 µM
levels of phosphorylated IGF-1R (phosphorylated IGF-1R): significant decreases
response to linsitinib concentration (luminescence viability) ([2]; 0, 1.2, 12, and 120 µM for 72 hours): dose-dependent response
apoptosis (TUNEL assay) ([2]; 12 µM): increases in apoptosis
cell viability (luminescence) ([2]; 12 µM): significant reduction in cell viability
LDH secretion (cytotoxicity) [2, 6]: spiked in both models immediately following drug administration, but significantly more so
Osteocalcin secretion [2, 6]: decreased
cancer cell population (luminescence) ([2]; 12 µM, 21-day clinical treatment regimen): initial decrease in cancer cell population in the non-metastatic model and this population appeared unable to continue expanding
drug response (luminescence) ([2]; 12 µM, after 3 days): significant drug response
osteopontin secretion ([2]; 12 µM, throughout the 21 days): significantly increased
drug response of tumors derived from sorted linsitinib-resistant cells ([2]; second 21-day 12 µM treatment regimen): significant initial drug response
LDH secretion (cytotoxicity) ([3]; 3-week regimen, supernatants): spiked
Osteocalcin secretion ([3]; 3-week regimen, supernatants): decreased
cancer cell population (luminescence) ([3]; 21-day clinical treatment regimen): decrease in drug efficacy, as the cancer cell population continued to expand over the 21-day treatment cycle
drug response (luminescence) ([3]; after 3 days): significant drug response
osteopontin secretion ([3]; throughout the 21 days): decreased similar to osteocalcin
drug response (luminescence), immediate exposure ([4]; 3 days, directly into the TE-ES tissue chamber): fast response to the drug
drug response (luminescence), diffused exposure ([4]; 3 days, introduced into the circulation): no response
drug response (luminescence) ([4]; 3 days, linsitinib into the reservoir): insignificant drug response
Secretion of LDH, vehicle vs linsitinib treated ([4]; 72 hours): no significant difference
progression of ES in the clinical trial ([5]; Phase II trial, patients with refractory or relapsed ES): unable to stop progression of ES
Cmax ([5]; blood plasma, patients, read-out: Cmax clinical concentration): 12 µM
atrial fibrillation [5, 7]: 3.75 - 5%
tachycardia [5, 7]: 3.75-5 % of patients
half-life ([5]; known value): approximately 5 hours
